The target in the assay is T1, GPR119 (Homo sapiens, UniProt Q8TDV5).
T1 sequence (Q8TDV5 1-335): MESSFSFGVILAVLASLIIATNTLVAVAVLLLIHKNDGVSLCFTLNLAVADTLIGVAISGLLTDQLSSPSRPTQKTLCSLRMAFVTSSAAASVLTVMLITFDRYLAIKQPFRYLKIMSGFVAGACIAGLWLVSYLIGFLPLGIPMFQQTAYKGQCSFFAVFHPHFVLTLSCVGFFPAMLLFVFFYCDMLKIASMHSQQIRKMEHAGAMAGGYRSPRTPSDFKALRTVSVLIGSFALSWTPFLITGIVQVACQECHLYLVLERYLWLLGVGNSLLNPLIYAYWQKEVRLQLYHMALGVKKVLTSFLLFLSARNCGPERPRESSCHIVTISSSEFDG
The assay can be described thus: cAMP GloSensor assay in CHO-K1. The format is cell-based.

Results on 1 compound are retold here after doi:10.1101/2025.03.24.645127v1 (biorxiv, 2025).

pEC50: −log10 of the molar value.

Usually pEC50 stands for the EC50 on a negative log10 scale, so that one unit is a factor of ten. Lower therefore signals a high EC50. For `COC(=O)N[C@H](C(=O)N[C@@H](Cc1ccccc1)[C@@H](O)CN(Cc1ccc(-c2ccccn2)cc1)NC(=O)[C@@H](NC(=O)OC)C(C)(C)C)C(C)(C)C` [atazanavir], the pEC50 is ~5.52.
